Source: PMC3828927, “Heterotropic Effect of β-lactam Antibiotics on Antioxidant Property of Haptoglobin (2-2)-Hemoglobin Complex” (Iranian Journal of Pharmaceutical Research : IJPR, 2011)

Molecular target: T1, Hp (2-2)-Hb complex (Homo sapiens, UniProt P68871+P69905)
T1 construct: gene HBA1; with Haptoglobin
Assay: guaiacol peroxidase assay, A470, clearance plot
Type: biochemical
Conditions: activator (heterotropic); binding site not shown; varied H2O2, 0.03 M guaiacol, 64 nM complex, 50 mM phosphate pH 7.5, 37 C

T1 sequence (P69905 2-142): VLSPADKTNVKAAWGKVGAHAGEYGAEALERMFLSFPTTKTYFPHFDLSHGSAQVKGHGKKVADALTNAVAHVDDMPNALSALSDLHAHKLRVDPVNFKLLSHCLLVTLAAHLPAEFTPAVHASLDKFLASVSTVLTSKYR
T1 sequence (P68871 2-147): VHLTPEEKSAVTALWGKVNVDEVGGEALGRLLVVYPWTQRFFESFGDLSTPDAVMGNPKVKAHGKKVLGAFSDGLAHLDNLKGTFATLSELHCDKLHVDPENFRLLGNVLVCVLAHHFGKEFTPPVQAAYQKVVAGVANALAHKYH
T1 sequence (P00738 19-160 partner): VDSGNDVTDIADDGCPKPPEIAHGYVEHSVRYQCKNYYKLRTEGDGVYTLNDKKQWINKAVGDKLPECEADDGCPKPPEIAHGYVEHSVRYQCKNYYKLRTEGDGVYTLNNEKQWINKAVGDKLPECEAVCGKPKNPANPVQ
T1 sequence (P00738 162-406 partner): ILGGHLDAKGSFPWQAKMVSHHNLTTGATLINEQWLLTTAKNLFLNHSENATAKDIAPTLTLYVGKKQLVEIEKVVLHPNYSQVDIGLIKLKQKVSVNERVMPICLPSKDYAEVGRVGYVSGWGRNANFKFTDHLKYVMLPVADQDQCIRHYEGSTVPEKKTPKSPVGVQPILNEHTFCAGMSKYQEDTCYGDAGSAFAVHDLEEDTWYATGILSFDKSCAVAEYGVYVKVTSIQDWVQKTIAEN

CC1(C)S[C@@H]2[C@H](NC(=O)[C@H](N)c3ccccc3)C(=O)N2[C@H]1C(=O)O [ampicillin]
% increase in peroxidase activity (CLmax) at 14 μg/mL: ~ 16%
